Patent US7335814B2, “Transgenic cells expressing glucosyltransferase nucleic acids” (The University of York, priority 2000, dated 2008)

Columns and labels:
Type in all cases: biochemical
UGT71C1 = molecular target: T1, UGT71C1 (Arabidopsis thaliana, UniProt O82381); experiment: UGT71C1 glucosyltransferase specific activity towards phenolic compounds (reverse-phase HPLC); details: 1 mM phenolic compound, 5 mM UDP-glucose, 50 mM TRIS-HCl pH 7.0, 30° C., 30 min; mean of three replicates ± standard deviation
T1 construct: GST (N); made in house; host or cells: E. coli
T1 sequence (O82381 1-481): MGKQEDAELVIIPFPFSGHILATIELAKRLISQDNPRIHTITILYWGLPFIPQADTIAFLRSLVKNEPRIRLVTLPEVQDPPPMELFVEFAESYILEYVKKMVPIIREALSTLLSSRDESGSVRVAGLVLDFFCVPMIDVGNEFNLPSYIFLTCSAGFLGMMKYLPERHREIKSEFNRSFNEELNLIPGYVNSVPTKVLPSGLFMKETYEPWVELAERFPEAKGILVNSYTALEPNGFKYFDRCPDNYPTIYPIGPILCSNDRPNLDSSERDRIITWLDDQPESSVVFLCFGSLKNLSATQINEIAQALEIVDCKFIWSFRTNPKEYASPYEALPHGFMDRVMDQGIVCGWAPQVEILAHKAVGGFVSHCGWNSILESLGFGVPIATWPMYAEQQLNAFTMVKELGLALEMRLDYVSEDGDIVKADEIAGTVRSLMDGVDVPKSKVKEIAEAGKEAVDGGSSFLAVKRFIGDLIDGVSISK

recombinant GTase A911 = molecular target: T2, recombinant GTase A911 (Arabidopsis thaliana, UniProt O22182); experiment: Specific activity of recombinant GTase producing glucose ester against lignin precursors (HPLC); set-up: made in house; host or cells: E. coli; details: 0.5 ml of potential substrates, 5 mM UDPG, 0.2 μg GTase, 200 μl, 20° C., 30 min
T2 sequence (O22182 1-456): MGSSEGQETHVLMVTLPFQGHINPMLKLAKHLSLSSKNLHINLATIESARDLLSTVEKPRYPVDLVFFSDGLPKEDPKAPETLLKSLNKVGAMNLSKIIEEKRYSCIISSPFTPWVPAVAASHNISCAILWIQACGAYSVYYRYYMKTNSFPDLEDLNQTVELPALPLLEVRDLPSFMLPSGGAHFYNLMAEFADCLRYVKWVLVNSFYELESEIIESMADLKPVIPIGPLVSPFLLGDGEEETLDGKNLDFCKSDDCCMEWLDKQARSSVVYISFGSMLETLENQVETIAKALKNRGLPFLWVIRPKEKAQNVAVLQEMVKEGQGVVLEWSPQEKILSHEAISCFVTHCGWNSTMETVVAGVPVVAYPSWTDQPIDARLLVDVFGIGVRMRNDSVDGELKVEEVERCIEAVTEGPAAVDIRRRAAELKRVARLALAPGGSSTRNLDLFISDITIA

recombinant GTase A062 = molecular target: T3, recombinant GTase A062 (Arabidopsis thaliana, UniProt Q9LR44); experiment: as above; details: 0.5 ml of potential substrates, 5 mM UDPG, 0.2 μg GTase, 200 μl, 20° C., 30 min
T3 construct: made in house; host or cells: E. coli
T3 sequence (Q9LR44 1-469): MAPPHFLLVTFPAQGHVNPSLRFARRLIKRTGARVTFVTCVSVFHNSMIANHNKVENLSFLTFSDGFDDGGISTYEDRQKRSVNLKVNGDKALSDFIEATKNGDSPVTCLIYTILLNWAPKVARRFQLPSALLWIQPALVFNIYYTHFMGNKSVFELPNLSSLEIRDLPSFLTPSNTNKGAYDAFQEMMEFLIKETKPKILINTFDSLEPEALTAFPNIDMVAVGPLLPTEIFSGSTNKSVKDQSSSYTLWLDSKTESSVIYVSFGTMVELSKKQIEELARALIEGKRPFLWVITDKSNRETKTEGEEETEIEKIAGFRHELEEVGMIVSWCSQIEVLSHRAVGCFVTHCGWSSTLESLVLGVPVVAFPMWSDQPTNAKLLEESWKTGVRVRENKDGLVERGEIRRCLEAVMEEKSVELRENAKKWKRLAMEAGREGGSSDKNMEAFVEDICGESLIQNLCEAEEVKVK

recombinant GTase A41 = molecular target: T4, recombinant GTase A41 (Arabidopsis thaliana, UniProt Q5XF20); experiment: as above; details: 5 mM UDPG, 0.2 μg GTase, 200 μl, 20° C., 30 min
T4 construct: made in house; host or cells: E. coli
T4 sequence (Q5XF20 7-490): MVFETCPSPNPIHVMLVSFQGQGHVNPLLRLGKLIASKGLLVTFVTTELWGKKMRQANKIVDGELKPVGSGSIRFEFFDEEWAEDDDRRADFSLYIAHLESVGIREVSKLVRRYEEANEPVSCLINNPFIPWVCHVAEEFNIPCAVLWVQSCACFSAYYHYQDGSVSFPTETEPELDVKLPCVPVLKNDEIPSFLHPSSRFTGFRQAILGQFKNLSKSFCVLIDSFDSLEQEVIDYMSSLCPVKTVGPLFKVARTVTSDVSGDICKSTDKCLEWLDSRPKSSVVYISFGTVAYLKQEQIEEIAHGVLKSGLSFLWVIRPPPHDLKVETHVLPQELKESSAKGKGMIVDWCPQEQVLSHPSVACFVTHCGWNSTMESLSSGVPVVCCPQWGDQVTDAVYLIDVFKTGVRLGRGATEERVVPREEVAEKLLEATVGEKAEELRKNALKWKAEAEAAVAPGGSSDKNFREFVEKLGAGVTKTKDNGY

recombinant GTase A962 = molecular target: T5, recombinant GTase A962 (Arabidopsis thaliana, UniProt O82382); experiment: Specific activity of recombinant GTase producing O-glucosides against lignin precursors (HPLC); details: 30° C.; ND = not detected
T5 construct: made in house; host or cells: E. coli
T5 sequence (O82382 1-474): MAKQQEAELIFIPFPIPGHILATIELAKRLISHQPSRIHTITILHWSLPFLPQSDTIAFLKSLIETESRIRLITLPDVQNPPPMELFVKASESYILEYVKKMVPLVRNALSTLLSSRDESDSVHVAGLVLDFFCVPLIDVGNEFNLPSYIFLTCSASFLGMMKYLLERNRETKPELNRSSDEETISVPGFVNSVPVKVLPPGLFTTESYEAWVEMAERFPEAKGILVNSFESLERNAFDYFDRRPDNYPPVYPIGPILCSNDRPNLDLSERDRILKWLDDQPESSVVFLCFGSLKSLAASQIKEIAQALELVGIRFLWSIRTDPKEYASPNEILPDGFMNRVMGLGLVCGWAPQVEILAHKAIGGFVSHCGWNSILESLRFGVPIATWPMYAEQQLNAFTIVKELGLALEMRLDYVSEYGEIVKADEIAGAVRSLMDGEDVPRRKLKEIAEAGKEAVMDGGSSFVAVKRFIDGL

recombinant GTase A407 = molecular target: T6, recombinant GTase A407 (Arabidopsis thaliana, UniProt O81498); experiment: as above; details: 30° C.; ND = not detected
T6 construct: made in house; host or cells: E. coli
T6 sequence (O81498 1-481): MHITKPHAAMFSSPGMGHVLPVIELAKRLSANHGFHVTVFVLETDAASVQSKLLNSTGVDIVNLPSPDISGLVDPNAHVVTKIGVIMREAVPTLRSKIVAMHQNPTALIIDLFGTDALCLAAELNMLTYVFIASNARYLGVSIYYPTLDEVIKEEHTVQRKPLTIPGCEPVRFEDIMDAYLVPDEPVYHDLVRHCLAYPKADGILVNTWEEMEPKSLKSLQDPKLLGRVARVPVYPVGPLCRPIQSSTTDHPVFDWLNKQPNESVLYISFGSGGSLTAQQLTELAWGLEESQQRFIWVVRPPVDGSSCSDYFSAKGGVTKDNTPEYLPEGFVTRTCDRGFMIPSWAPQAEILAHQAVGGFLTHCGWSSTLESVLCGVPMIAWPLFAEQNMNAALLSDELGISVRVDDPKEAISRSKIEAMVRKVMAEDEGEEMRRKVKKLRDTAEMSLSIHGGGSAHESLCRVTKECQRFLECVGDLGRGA

recombinant GTase A43 = molecular target: T7, recombinant GTase A43 (Arabidopsis thaliana, UniProt O23402); experiment: Specific activity of recombinant GTase producing glucose ester against lignin precursors (HPLC); details: 0.5 ml of potential substrates, 5 mM UDPG, 0.2 μg GTase, 200 μl, 20° C., 30 min
T7 construct: made in house; host or cells: E. coli

recombinant GTase A233 = molecular target: T8, recombinant GTase A233 (Arabidopsis thaliana, UniProt Q8W491); experiment: Specific activity of recombinant GTase producing O-glucosides against lignin precursors (HPLC); details: 30° C.; ND = not detected
T8 construct: made in house; host or cells: E. coli

recombinant GTase A961 = molecular target: T9, recombinant GTase A961 (Arabidopsis thaliana, UniProt O82381); experiment: as above; details: 30° C.; ND = not detected
T9 construct: made in house; host or cells: E. coli
T9 sequence (O82381 1-481): T1 sequence (O82381 1-481)

recombinant GTase A119 = molecular target: T10, recombinant GTase A119 (Arabidopsis thaliana, UniProt Q9LVR1); experiment: as above; details: 30° C.; ND = not detected
T10 construct: made in house; host or cells: E. coli
T10 sequence (Q9LVR1 1-481): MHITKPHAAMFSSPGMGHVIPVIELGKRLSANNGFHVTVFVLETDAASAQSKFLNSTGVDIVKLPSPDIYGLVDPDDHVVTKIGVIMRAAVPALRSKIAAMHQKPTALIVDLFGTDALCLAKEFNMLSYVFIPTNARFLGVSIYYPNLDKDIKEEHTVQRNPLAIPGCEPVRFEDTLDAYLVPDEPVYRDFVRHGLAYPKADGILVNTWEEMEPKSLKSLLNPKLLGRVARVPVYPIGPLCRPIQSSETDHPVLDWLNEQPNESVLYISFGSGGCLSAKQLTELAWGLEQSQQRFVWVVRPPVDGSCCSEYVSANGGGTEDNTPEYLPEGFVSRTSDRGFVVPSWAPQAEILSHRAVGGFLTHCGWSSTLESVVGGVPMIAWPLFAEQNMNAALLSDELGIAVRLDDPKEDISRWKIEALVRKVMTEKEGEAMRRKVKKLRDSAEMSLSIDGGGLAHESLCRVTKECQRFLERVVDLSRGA

| Molecule | Specific activity (UGT71C1) (UGT71C1) | Specific activity of A962 (substrate converted to 4-O-glucoside) (recombinant GTase A962) | Specific activity of A961 (substrate converted to 4-O-glucoside) (recombinant GTase A961) | further results |
| --- | --- | --- | --- | --- |
| COc1cc(/C=C/C(=O)O)cc(OC)c1O [Sinapic acid, sinapic acid] | 0 nkat/mg | 0.01 nkat/mg | 0.01 nkat/mg | Specific activity of A911 (substrate converted to glucose ester) (recombinant GTase A911): 0.15 nkat/mg; Specific activity of A062 (substrate converted to glucose ester) (recombinant GTase A062): 0.1 nkat/mg; Specific activity of A41 (substrate converted to glucose ester) (recombinant GTase A41): 5.35 nkat/mg; Specific activity of A407 (substrate converted to 4-O-glucoside) (recombinant GTase A407): 65.39 nkat/mg; Specific activity of A43 (substrate converted to glucose ester) (recombinant GTase A43): 0.05 nkat/mg; Specific activity of A233 (substrate converted to 4-O-glucoside) (recombinant GTase A233): 0.39 nkat/mg |
| COc1cc(/C=C/CO)cc(OC)c1O [sinapyl alcohol] | – | 0.45 nkat/mg | 0.35 nkat/mg | Specific activity of A407 (substrate converted to 4-O-glucoside) (recombinant GTase A407): 114.76 nkat/mg; Specific activity of A233 (substrate converted to 4-O-glucoside) (recombinant GTase A233): 0.05 nkat/mg; Specific activity of A119 (substrate converted to 4-O-glucoside) (recombinant GTase A119): 126.16 nkat/mg |
| O=C(O)c1ccc(O)c(O)c1 [3,4-dihydroxybenzoic acid] | 0 nkat/mg | – | – | – |
| O=C(O)c1ccc(O)cc1 [4-hydroxybenzoic acid] | 0 nkat/mg | – | – | – |
| Catechin | 0 nkat/mg | – | – | – |
| COc1cc(/C=C/C=O)cc(OC)c1O [sinapyl aldehyde] | – | 0.50 nkat/mg | 0.57 nkat/mg | Specific activity of A119 (substrate converted to 4-O-glucoside) (recombinant GTase A119): 4.55 nkat/mg |
| COc1cc(/C=C/CO)ccc1O [Coniferyl alcohol, coniferyl alcohol] | – | 0.49 nkat/mg | 0.57 nkat/mg | Specific activity of A407 (substrate converted to 4-O-glucoside) (recombinant GTase A407): 2.78 nkat/mg; Specific activity of A233 (substrate converted to 4-O-glucoside) (recombinant GTase A233): 0.46 nkat/mg |
| O=C/C=C/c1ccc(O)cc1 [p-coumaryl aldehyde] | – | 0.02 nkat/mg | 0.01 nkat/mg | Specific activity of A119 (substrate converted to 4-O-glucoside) (recombinant GTase A119): 0.03 nkat/mg |
| COc1cc(/C=C/C=O)ccc1O [Coniferyl aldehyde, coniferyl aldehyde] | – | 0.34 nkat/mg | 0.16 nkat/mg | Specific activity of A119 (substrate converted to 4-O-glucoside) (recombinant GTase A119): 1.08 nkat/mg |

Now from value to molecule, other results behind:

| Specific activity (UGT71C1) (UGT71C1) | Molecule | Specific activity of A962 (substrate converted to 4-O-glucoside) (recombinant GTase A962) | Specific activity of A961 (substrate converted to 4-O-glucoside) (recombinant GTase A961) | further results |
| --- | --- | --- | --- | --- |
| 1.4 ± 0.4 nkat/mg | O=c1c(O)c(-c2ccc(O)c(O)c2)oc2cc(O)cc(O)c12 [Quercetin] | – | – | – |
| 0.7 ± 0.1 nkat/mg | O=c1cc(-c2ccc(O)c(O)c2)oc2cc(O)cc(O)c12 [Luteolin] | – | – | – |
| 1.2 ± 0.2 nkat/mg | O=C(O)/C=C/c1cccc(O)c1 [m-Coumaric acid] | – | – | – |
| 34.8 ± 4.2 nkat/mg | O=c1ccc2cc(O)c(O)cc2o1 [Esculetin] | – | – | – |
| 1.5 ± 0.2 nkat/mg | O=C(O)/C=C/c1ccccc1O [o-Coumaric acid] | – | – | – |
| 29.4 ± 3.9 nkat/mg | COc1cc2ccc(=O)oc2cc1O [Scopoletin] | – | – | – |
| 0 nkat/mg | O=C1C[C@@H](c2ccc(O)c(O)c2)Oc2cc(O)cc(O)c21 [Eriodictyol] | – | – | – |
